In one assay the test system is IL-8. The experiment in a line: cells. The format is cell-based, human. Conditions: for % Relative inhibition of IL-8 release: PMA 0.5 μg/ml; for effect on IL-8 release, in words: PMA-stimulated keratinocytes. As to the method:
(§1) Example 1: Effects of six compounds on normal human epidermal keratinocytes The effects on normal human epidermal keratinocytes (NHEK) were measured by assessing IL-8 and PGE2 release by PMA-stimulated NHEK using specific ELISA kits.
(§2) Keratinocytes were seeded in 96-well plates and cultured for 24 hours in culture medium. […] After pre-incubation, the medium was removed and replaced by assay medium 1 containing or not (stimulated control) the compounds or the reference compound and containing the inducer (PMA tested at 0.5 μg/ml). The cells were then incubated for 24 hours. In parallel, a non-stimulated control condition was performed.
(§3) All experimental conditions were performed in n=3. At the end of incubation, the culture supernatants were collected for IL-8 and PGE2 quantifications.
(§4) IL-8 and PGE2 released in the culture supernatants were measured using specific ELISA kits according to the supplier's instructions.

A further assay has as its system PGE2. The experiment in a line: PGE2 release by PMA-stimulated NHEK (ELISA). The format is cell-based, human. The settings on record: for effect on PGE2 release, in words / % of relative inhibition of PGE2 release / PGE2 release, % of the control: PMA-stimulated keratinocytes; for effect on PGE2 release, in words: overall; for % of relative inhibition of PGE2 release: concentration not given; for PGE2 release, % of the control: highest concentration tested. The method, then: as §1, §2, §3, §4
For orientation: ELISA stands for enzyme-linked immunosorbent assay.

Setting [1] is: 1 μM, NHEK, PMA 0.5 μg/ml, 24 h.
The mark [2] stands for this setting: Homo sapiens, NHEK, 24 h, read-out: % Relative inhibition of IL-8 release.
Where [3] appears, read: Homo sapiens, NHEK, 24 h, read-out: % Relative inhibition of PGE2 release.

Molecules are shown by their SMILES. Entries after “also recorded” stand apart in the source; their conditions may differ. Read-outs that look alike come from different tables or passages of the source.

Regarding `CCCc1cc(O)c(C/C=C(\C)CCC=C(C)C)c(O)c1C(=O)O` [CBGVA, cannabigerovarinic acid], the “% Relative inhibition of IL-8 release” value in the assay with IL-8 (0.1 μM, NHEK, 24 h) stood at 2%; in the assay with IL-8 (0.3 μM, NHEK, 24 h), 11%; in the assay on IL-8 (1 μM, NHEK, 24 h), 9%. The “% Relative inhibition of PGE2 release” value in the assay with PGE2 (0.1 μM, NHEK, PMA 0.5 μg/ml, 24 h) was 19%; in the assay with PGE2 (0.3 μM, NHEK, PMA 0.5 μg/ml, 24 h), 65%; in the assay on PGE2 (setting [1]), over 162%. Moreover, the “effect on PGE2 release, in words” value in the assay with PGE2 was “significant effect only when tested at the highest concentration; also recorded: inhibited PGE2 release”. Moreover, the “% of relative inhibition of PGE2 release” value in the assay on PGE2 is reported as “about 160%”.
In general, inhibition refers to the drop in the measured response relative to a control, in per cent. For the molecule `CCCCCc1cc(O)c(C/C=C(\C)CCC=C(C)C)c(O)c1` [CBG, cannabigerol], the “effect on IL-8 release, in words” value with IL-8 (3 μM) is listed as “strongly inhibited”. Moreover, in the assay on IL-8 (setting [2]), the inhibition at 0.3 µM came out at 7%, the inhibition at 1 µM was 20% and the inhibition at 3 µM was 60%. Besides, the “effect on IL-8 release, in words” value in the assay with IL-8 (overall) is “significantly inhibited”. In addition, in the assay on PGE2 (setting [3]), the inhibition at 0.3 µM came to 86%, the inhibition at 1 µM is over 169% and the inhibition at 3 µM was over 159%. For the same molecule, in the assay on PGE2, the “effect on PGE2 release, in words” value is given as “significant at all tested concentrations; also recorded: significantly inhibited” and the “% of relative inhibition of PGE2 release” value is on record as “about 160%”.
For the molecule `O=C1O[C@H]([C@@H](O)CO)C(O)=C1O` [L-Ascorbic acid, reference compound], in the assay with IL-8 (setting [2]), the inhibition at 50 µg/mL was -10%, the inhibition at 100 µg/mL came to 11% and the inhibition at 200 µg/mL was -15%. In the assay on PGE2 (setting [3]), the inhibition at 50 µg/mL is over 148%, the inhibition at 100 µg/mL is over 160% and the inhibition at 200 µg/mL was determined as 127%. In the assay with PGE2, the “effect on PGE2 release, in words” value is given as “overall the same effect at all tested concentrations; also recorded: significantly limited PGE2 release” and the “% of relative inhibition of PGE2 release” value is reported as about 145%.
As for `COc1ccc2c(c1)c(CC(=O)O)c(C)n2C(=O)c1ccc(Cl)cc1` [Indomethacin, indomethacin, reference compound], the “% Relative inhibition of PGE2 release” value in the assay on PGE2 (setting [1]) is over 169%. In the assay with PGE2 (setting [3]), the inhibition at 1 µM is over 169%.
Take `C=C(C)[C@@H]1CCC(C)=C[C@H]1c1c(O)cc(CCCCC)c(C(=O)O)c1O` [CBDA, cannabidiolic acid]: in the assay with IL-8 (setting [2]), the inhibition at 0.03 µM is 11%, the inhibition at 0.1 µM worked out at 17% and the inhibition at 0.3 µM stood at 0%. Also, in the assay on PGE2 (setting [3]), the inhibition at 0.03 µM was -24%, the inhibition at 0.1 µM was -50% and the inhibition at 0.3 µM is -20%. The “effect on PGE2 release, in words” value with PGE2 is reported as “did not modulate PGE2 release”.
Take `CCCCCc1cc(O)c(C/C=C(\C)CCC=C(C)C)c(O)c1C(=O)O` [CBGA, cannabigerolic acid]: in the assay with IL-8 (setting [2]), the inhibition at 0.03 µM was determined as 0%, the inhibition at 0.1 µM is -7% and the inhibition at 0.3 µM came out at 9%. In the assay with PGE2 (setting [3]), the inhibition at 0.03 µM was -17% and the inhibition at 0.1 µM was -68%. In the assay on PGE2, the “effect on PGE2 release, in words” value was “stimulate PGE2 expression” and the “PGE2 release, % of the control” value is on record as 182 % of the control.
For `C=C(C)[C@@H]1CCC(C)=C[C@H]1c1c(O)cc(CCCCC)cc1O` [CBD, cannabidiol], in the assay on IL-8 (0.3 μM), the “effect on IL-8 release, in words” value is on record as “overstimulated IL-8 release”. In the assay on IL-8 (setting [2]), the inhibition at 0.1 µM turned out to be 12%, the inhibition at 0.3 µM was -44% and the inhibition at 1 µM stood at 18%. The inhibition at 0.1 µM with PGE2 (Homo sapiens, 0.1 μM, NHEK, PMA 0.5 μg/ml, 24 h, read-out: % Relative inhibition of PGE2 release) was 0%. For the same molecule, in the assay on PGE2 (Homo sapiens, 0.3 μM, NHEK, PMA 0.5 μg/ml, 24 h, read-out: % Relative inhibition of PGE2 release), the inhibition at 0.3 µM is -59%. Besides, in the assay on PGE2, the “effect on PGE2 release, in words” value was “stimulate PGE2 expression” and the “PGE2 release, % of the control” value is recorded as 185 % of the control.
